Patent US7179842B2, “Method of treating non-insulin dependent diabetes mellitus with phytanic acid derivatives” (priority 2000, dated 2007)
pEC50, pIC50, pKd: −log10 of the molar value. Like-named read-outs stand apart in the source and are kept apart here.

Legend:
RXR [1] = conditions: cited from earlier work
[2] = target: all-trans-retinoic acid receptor (RAR); conditions: cited from earlier work
GLUT-2 mRNA = test: Quantitative RT-PCR (TaqMan) mRNA level, GLUT-2; format: cell-based, rat; conditions: 24 h
Experimental: (§1) The data is presented as means of 3 independent experiments.
(§2) For the quantification of the expression levels the novel Real Time Quantitative TaqMan™ PCR using the multiplex method was employed. Total RNA was isolated using the RNeasy kit from QIAGEN (Valencia, Calif.). The first strand cDNA was synthesized in a 20 μl reaction from 5 μg total RNA by reverse transcription with the. […] Subsequently the cDNA was diluted to 500 μl. In a 50 μl reaction, 10 μl cDNA was amplified in the 7700 Sequence Detector (PE Biosystems, Foster City, Calif.), using the Universal Master Mix (PE Biosystems, Foster City, Calif.) and the following PCR-primers and TaqMan™-probes at the concentrations of 300 nM and 100 nM, respectively, and PCR-primers and TaqMan™-probes for the reference gene β-actin at concentration of 50 nM.
(§3) The induction of gene expression, and corresponding error bars were calculated from 3 independent experiments using the ΔCT method according to the manufacturer's protocol.

PEPCK mRNA = test: Quantitative RT-PCR (TaqMan) mRNA level, PEPCK; format: cell-based, rat
Experimental: as §1, §2, §3

glucokinase mRNA = test: Quantitative RT-PCR (TaqMan) mRNA level, glucokinase; format: cell-based, rat; conditions: 100 μM, 24 h
Experimental: as §1, §2, §3

GLUT-1 mRNA = test: Quantitative RT-PCR (TaqMan) mRNA level, GLUT-1; format: cell-based, rat; conditions: for GLUT-1 mRNA levels / GLUT-1 mRNA induction: 24 h
Experimental: as §1, §2, §3

Rat primary hepatocytes [3] = test: [3H]-2-deoxy-D-glucose uptake in hepatocytes; format: cell-based; conditions: 24 h treatment
Experimental: Rat primary hepatocytes were cultured for 24 h at 37° C. in media containing phytanic acid 10 μM (□) and 100 μM (▪), palmitic acid 100 μM ( ), DHA 100 μM (∘), and control (▴). Subsequently [3H]-2-deoxy-D-glucose uptake was measured after 15, 30, and 60 min incubation period.
Cells cultured in 24-well plates were treated for 24 h with phytanic acid, palmitic acid, and DHA. Subsequently the medium was removed and cells were washed twice with pre-warmed phosphate buffered saline, pH 7.4 (PBS). 500 μl of pre-warmed glucose reaction mixture (0.01 mM 2-deoxy-D-glucose and 3 μCi/ml [3H]-2-deoxy-D-glucose in PBS) was then added to the cells. The reaction mixture was further incubated at 37° C. for different time intervals. The reaction was terminated by aspirating the reaction mixture and washing the cells twice with ice cold 10 mM 2-deoxy-D-glucose in PBS. Cells were then solubilized with 500 μl of 1% sodium dodecyl sulfate, 400 μl of which was transferred to scintillation vials containing 5 ml Quickszint 1 (Zinsser Analytic, Frankfurt, Germany). Radioactivity was counted in a Tri-Carb 2500 (Packard, Meriden, Conn.) liquid scintillation counter. The remaining lysate was used for protein content determination with the BCA Protein Assay Reagent Kit (Pierce, Rockford, Ill.). Data are expressed as means±SD from 3 independent experiments.

[4] = tested on: liver fatty acid binding protein (LFABP) mRNA; test: Quantitative RT-PCR (TaqMan) mRNA level, LFABP; format: cell-based, rat; conditions: 10 μM for 24 h
Experimental: (§4) The mRNA levels were determined with the TaqMan™ methodology after a 24 h stimulation of the rat primary hepatocytes with 10 μM phytanic acid, palmitic acid, and DHA. mRNA levels were normalized to β-actin expression and expressed relative to untreated cells. The data is presented as means of 3 independent experiments. Error bars were calculated as described in Example 3.
(§5) For the quantification of the expression levels the novel Real Time Quantitative TaqMan™ PCR using the multiplex method was employed. Total RNA was isolated using the RNeasy kit from QIAGEN (Valencia, Calif.). The first strand cDNA was synthesized in a 20 μl reaction from 5 μg total RNA by reverse transcription with the. SuperScriptII™ Reverse Transcriptase Kit (Life Technologies Inc., Coralville Iowa) and 100 ng random hexamers, as previously described (Zimmermann, U., Fluehmann, B., Born, W., Fischer, J., A. & Muff, R. (1997) Coexistence of Novel Amylin-Binding Sites With Calcitonin Receptors in Human Breast Carcinoma Mcf-7 Cells, Journal of Endocrinology. 155, 423–431). Subsequently the cDNA was diluted to 500 μl. […]
as §3

[5] = tested on: tumor necrosis factor α (TNFα) mRNA; test: Quantitative RT-PCR (TaqMan) mRNA level, TNFα; format: cell-based, rat; conditions: 10 μM for 24 h
Experimental: as §4, §5, §3

[6] = tested on: apolipoprotein A1 (ApoA1) mRNA; test: Quantitative RT-PCR (TaqMan) mRNA level, ApoA1; format: cell-based, rat; conditions: 10 μM for 24 h
Experimental: as §4, §5, §3

Rat primary hepatocytes [7] = conditions: 24 h, 1 mM
[8] = tested on: low-density lipoprotein receptor (LDLR) mRNA; test: Quantitative RT-PCR (TaqMan) mRNA level, LDLR; format: cell-based, rat; conditions: 10 μM for 24 h
Experimental: as §4, §5, §3

[9] = tested on: cytochrome P450/4A1 (Cyp4al) mRNA; test: Quantitative RT-PCR (TaqMan) mRNA level, Cyp4a1; format: cell-based, rat; conditions: 10 μM for 24 h
Experimental: as §4, §5, §3

[10] = tested on: apolipoprotein E (ApoE) mRNA; test: Quantitative RT-PCR (TaqMan) mRNA level, ApoE; format: cell-based, rat; conditions: 10 μM for 24 h
Experimental: as §4, §5, §3

PPARα = target: T1, PPARα (Homo sapiens, UniProt Q07869); conditions: read-out: Kd-value as PPARα ligand; cited from earlier work
T1 sequence (Q07869 1-468): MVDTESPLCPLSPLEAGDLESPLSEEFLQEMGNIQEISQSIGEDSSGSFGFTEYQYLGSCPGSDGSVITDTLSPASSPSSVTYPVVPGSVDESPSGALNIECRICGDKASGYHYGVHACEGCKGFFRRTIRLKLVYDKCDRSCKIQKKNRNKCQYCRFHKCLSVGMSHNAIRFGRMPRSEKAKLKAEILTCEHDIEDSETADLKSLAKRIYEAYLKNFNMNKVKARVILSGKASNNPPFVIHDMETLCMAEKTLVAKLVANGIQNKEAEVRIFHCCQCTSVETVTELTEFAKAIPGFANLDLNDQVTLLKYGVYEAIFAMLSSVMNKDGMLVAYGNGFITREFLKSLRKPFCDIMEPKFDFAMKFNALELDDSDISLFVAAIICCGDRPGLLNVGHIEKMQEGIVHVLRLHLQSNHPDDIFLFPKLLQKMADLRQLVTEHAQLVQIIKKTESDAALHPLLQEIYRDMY

plasma insulin = test: In vivo study, plasma insulin in rats fed phytanic acid; design: species or system male Wistar rats; conditions: 150 and 750 mg phytanic acid/kg feed, day 7, vs control chow
Experimental: Male Wistar rats were adapted for two days and then fed with the respective substance. The values are means±SD (see Example 4).
To determine the beneficial effect of phytanic acid on plasma insulin levels, a study was performed using male Wistar rats. The animals were adapted for two days and then fed with control chow, 150 mg phytanic acid/kg feed (P-10), and 750 mg phytanic acid/kg feed (P-50), respectively. Blood samples were taken at day 7 and the insulin concentration in the plasma was measured (FIG. 7).

RXR [11] = conditions: read-out: RXR receptor binding IC50; cited from earlier work
HMG-CoA reductase mRNA = test: Quantitative RT-PCR (TaqMan) mRNA level, HMG-CoA reductase; format: cell-based, rat; conditions: 10 μM for 24 h
Experimental: as §4, §5, §3

[12] = tested on: lipoprotein lipase (LPL) mRNA; test: Quantitative RT-PCR (TaqMan) mRNA level, LPL; format: cell-based, rat; conditions: 10 μM for 24 h
Experimental: as §4, §5, §3

[13] = cited from earlier work
[14] = adult mice, 0.5% phytol diet for 21 days; cited from earlier work
[15] = concentrations lower than 100 μM

In the case of `CC1=C(/C=C/C(C)=C\C=C\C(C)=C\C(=O)O)C(C)(C)CCC1` [9-cis-retinoic acid, reference compound], the pEC50 (RXR [1]; read-out: RXR activation EC50) is given as […] and the pEC50 ([2]; read-out: RAR activation EC50) is given as 7.89.

For `CC/C=C\C/C=C\C/C=C\C/C=C\C/C=C\C/C=C\CCC(=O)O` [DHA, docohexaenoic acid, reference compound], the “GLUT-2 mRNA levels” value (GLUT-2 mRNA) was “did not affect”, the “transcription of PEPCK mRNA” value (PEPCK mRNA; 100 μM, 24 h) was “reduced” and the “transcription of glucokinase mRNA” value (glucokinase mRNA) was “reduced”. For the same compound, the “GLUT-1 mRNA levels” value (GLUT-1 mRNA; concentrations up to 100 μM) was “did not affect”.

In the case of `CCCCCCCCCCCCCCCC(=O)O` [palmitic acid, reference compound], the “GLUT-2 mRNA levels” value (GLUT-2 mRNA; low concentrations) was “minor induction”, the “transcription of PEPCK mRNA” value (PEPCK mRNA; 100 μM, 24 h) was “reduced” and the “transcription of glucokinase mRNA” value (glucokinase mRNA) was “reduced”. For the same compound, the “GLUT-1 mRNA induction” value (GLUT-1 mRNA; 100 μM) was 2.4 (1.7–3.3) fold and the “GLUT-1 mRNA levels” value (GLUT-1 mRNA; [15]) was “did not affect”.

For `CC(C)CCCC(C)CCCC(C)CCCC(C)CC(=O)O` (stereo not shown) [phytanic acid], the “2-deoxy-D-glucose uptake vs control, palmitic acid or DHA” value (Rat primary hepatocytes [3]; 100 μM, uptake over 15, 30, 60 min) was “substantial increase”, the 2-deoxy-D-glucose uptake (Rat primary hepatocytes [3]; [15]) was “no measurable effect” and the “LFABP mRNA levels” value [4] was “remained unaffected”. The pEC50 (RXR [1]; read-out: RXR transcriptional effects EC50) was 5.52, the TNFα transcript [5] was “increase” and the “activity on retinoid receptors (RXR vs RAR)” value [2] was “restricted to RXR receptors”. For the same compound, the “ApoA1 mRNA” value [6] was “downregulated”, the “cells survived compared to untreated” value (Rat primary hepatocytes [7]) was 54±17% and the LDLR transcript [8] was “increase”. For the same compound, the Cyp4a1 transcript [9] was “increase”, the “GLUT-2 mRNA maximal induction” value (GLUT-2 mRNA; 100 μM) was 3.2 (2.7–3.8) fold and the “GLUT-2 mRNA induction” value (GLUT-2 mRNA; 0.01–100 μM) was “at least 2 fold”. The “ApoE mRNA” value [10] was “downregulated”, the pKd (PPARα) was 8.00 and the plasma insulin (plasma insulin) was “could reduce the plasma insulin”. For the same compound, the PEPCK transcript (PEPCK mRNA; 10 μM for 24 h) was “increase”, the “PEPCK mRNA induction” value (PEPCK mRNA; 100 μM, 24 h) was 2.5 (1.7–3.6) fold and the “PEPCK mRNA maximal induction” value (PEPCK mRNA; 100 μM, after 6 hours) was 4.4 (3.4–5.7) fold. The pIC50 (RXR [11]) was 5.64, the “glucokinase mRNA induction” value (glucokinase mRNA) was 3.0 (2.5–3.4) fold and the HMG-CoA reductase transcript (HMG-CoA reductase mRNA) was “increase”. For the same compound, the “GLUT-1 mRNA induction” value (GLUT-1 mRNA; 100 μM) was 2.2 (1.6–2.9) fold, the “GLUT-1 mRNA maximal induction” value (GLUT-1 mRNA; 100 μM, after 6 hours, normalized to β-actin, relative to untreated) was 5.6 (5.1–6.2) fold and the “GLUT-1 mRNA levels” value (GLUT-1 mRNA; [15]) was “did not affect”. For the same compound, the LPL transcript [12] was “increase”.

For `C/C(=C\CO)CCC[C@H](C)CCC[C@H](C)CCCC(C)C` [phytol], the “intestinal absorption from dietary chlorophyll” value ([13]; rat and man) is listed as “minimal”, the “absorption compared with phytanic acid” value ([13]; rats) is listed as “much less well adsorbed than phytanic acid” and the cholesterol serum levels [14] is listed as “remained unaffected”. The “decrease in triglyceride serum levels” value [14] was 40%.
